Assay results reported in patent publication US12465603B2, “Phthalazinone based modulators for the treatment of disease” (Soley Therapeutics, Inc., priority 2022, dated 2025).

Columns and labels:
[1] = test system: A2058 (ATCC, CRL-11147) cells; assay: Cell viability assay (Cell Titre Glo, 72 hours) in A2058 cells; format: cell-based; conditions: Homo sapiens
Method: (§1) Example 31: Cell Viability Assays
(§2) Phthalazinone based modulators as described herein were dispensed into 384 well CulturPlates™ (PerkinElmer) using Echo 555 acoustic dispensing in 10-point dose response curves at a final top concentration of 30 μM following a 1 in 3 dilution series. A2058 (ATCC, CRL-11147) or PA1 (ECACC, 90013101) cells were added directly to a compound at a density of 5000 cells per well in a final volume of 50 μL and incubated for 72 hours at 37° C., 5% CO2. Viability was assessed using Cell Titre Glo® (Promega) according to the manufacturer's instructions (25 μL per well) and IC50 curves were generated for each inhibitor using IDBS ActivityBase data analysis software.

[2] = test system: PA1 (ECACC, 90013101) cells; assay: Cell viability assay (Cell Titre Glo, 72 hours) in PA1 cells; format: cell-based; conditions: Homo sapiens, PA-1
Method: as §1, §2

SMILES | IC50 [1] | IC50 [2]
Cc1cncc(N2CCN(C(=O)c3nn(C)c(=O)c4ccccc34)CC2)c1 [Compound 73] | 1000 to 10000 nM | 1000 to 10000 nM
CCn1nc(C(=O)N2CCN(c3cnccc3OC)CC2)c2ccccc2c1=O [Compound 118] | ≤ 1000 nM | ≤ 1000 nM
COc1ncccc1N1CCN(C(=O)c2nn(C)c(=O)c3ccccc23)CC1 [Compound 20] | 1000 to 10000 nM | 1000 to 10000 nM
COc1cnc(C)cc1N1CCN(C(=O)c2nn(C)c(=O)c3ccccc23)CC1 [Compound 78] | 1000 to 10000 nM | 1000 to 10000 nM
CCOc1ccccc1N1CCN(C(=O)c2nn(C)c(=O)c3ccccc23)CC1 [Compound 42] | ≤ 1000 nM | ≤ 1000 nM
Cn1nc(C(=O)N2CCN(c3ccnc4c3OCC4)CC2)c2ccccc2c1=O [Compound 189] | ≤ 1000 nM | ≤ 1000 nM
COc1cc(F)cc(N2CCN(C(=O)c3nn(C)c(=O)c4cnccc34)CC2)c1 [Compound 180] | 1000 to 10000 nM | ≤ 1000 nM
CCc1cncc(N2CCN(C(=O)c3nn(C)c(=O)c4ccc(F)cc34)CC2)c1 [Compound 210] | 1000 to 10000 nM | ≤ 1000 nM
CCn1nc(C(=O)N2CCN(c3cccc4c3OCC4)CC2)c2ccccc2c1=O [Compound 126] | ≤ 1000 nM | ≤ 1000 nM
Cc1cccc(N2CCN(C(=O)c3nn(C)c(=O)c4ccccc34)CC2)c1 [Compound 25] | ≤ 1000 nM | ≤ 1000 nM
COc1cc(N2CCN(C(=O)c3nn(C)c(=O)c4ccc(F)cc34)CC2)ccn1 [Compound 163] | > 20000 nM | > 20000 nM
Cc1cc(N2CCN(C(=O)c3nn(C)c(=O)c4ccc(F)cc34)CC2)ccn1 [Compound 161] | > 20000 nM | > 20000 nM
CCn1nc(C(=O)N2CCN(c3cccc(OC)c3F)CC2)c2ccccc2c1=O [Compound 149] | 10000 to 20000 nM | 1000 to 10000 nM
Cn1nc(C(=O)N2CCN(c3cccc4cnn(C)c34)CC2)c2ccccc2c1=O [Compound 191] | > 20000 nM | > 20000 nM
Cn1nc(C(=O)N2CCN(c3ccc(F)cc3C3CC3)CC2)c2ccccc2c1=O [Compound 60] | ≤ 1000 nM | ≤ 1000 nM
CCn1nc(C(=O)N2CCN(c3cccc4oc(=O)[nH]c34)CC2)c2ccccc2c1=O [Compound 97] | > 20000 nM | 10000 to 20000 nM
CCn1nc(C(=O)N2CCN(c3ccc(F)c4ccoc34)CC2)c2ccccc2c1=O [Compound 92] | ≤ 1000 nM | ≤ 1000 nM
Cn1nc(C(=O)N2CCN(c3ncc(F)cc3C3CC3)CC2)c2ccccc2c1=O [Compound 19] | 1000 to 10000 nM | ≤ 1000 nM
Cn1nc(C(=O)N2CCN(c3cc(Cl)cc(C#N)c3)CC2)c2ccccc2c1=O [Compound 225] | ≤ 1000 nM | ≤ 1000 nM
COc1cc(F)cnc1N1CCN(C(=O)c2nn(C)c(=O)c3ccccc23)CC1 [Compound 13] | 10000 to 20000 nM | 1000 to 10000 nM

SMILES | IC50 [1] | IC50 [2]
CCn1nc(C(=O)N2CCN(c3cccc(OC)c3Br)CC2)c2ccccc2c1=O [Compound 153] | 1000 to 10000 nM | 1000 to 10000 nM
Cn1nc(C(=O)N2CCN(c3cncc(C#N)c3)CC2)c2cc(F)ccc2c1=O [Compound 234, 5-(4-(7-fluoro-3-methyl-4-oxo-3,4-dihydrophthalazine-1-carbonyl)piperazin-1-yl)nicotinonitrile] | > 20000 nM | > 20000 nM
CCn1nc(C(=O)N2CCN(c3ccccc3C(C)(F)F)CC2)c2ccccc2c1=O [Compound 131] | 1000 to 10000 nM | 1000 to 10000 nM
CCn1nc(C(=O)N2CCN(c3c(C)cccc3OC)CC2)c2ccccc2c1=O [Compound 154] | 1000 to 10000 nM | 1000 to 10000 nM
CCn1nc(C(=O)N2CCN(c3ncncc3OC)CC2)c2ccccc2c1=O [Compound 98] | 1000 to 10000 nM | 1000 to 10000 nM
Cn1nc(C(=O)N2CCN(c3nccnc3C3CC3)CC2)c2ccccc2c1=O [Compound 21] | > 20000 nM | 1000 to 10000 nM
CCOc1cc(F)ccc1N1CCN(C(=O)c2nn(CC)c(=O)c3ccccc23)CC1 [Compound 148] | ≤ 1000 nM | ≤ 1000 nM
CCn1nc(C(=O)N2CCN(c3ccc(F)c(OC)c3)CC2)c2ccccc2c1=O [Compound 150] | ≤ 1000 nM | ≤ 1000 nM
COCc1cncc(N2CCN(C(=O)c3nn(C)c(=O)c4ccc(F)cc34)CC2)c1 [Compound 164] | > 20000 nM | > 20000 nM
Cn1nc(C(=O)N2CCN(c3cncnc3C3CC3)CC2)c2cc(F)ccc2c1=O [Compound 168] | 1000 to 10000 nM | ≤ 1000 nM
Cn1nc(C(=O)N2CCN(c3cccc(C#N)c3)CC2)c2ccccc2c1=O [Compound 49] | ≤ 1000 nM | ≤ 1000 nM
O=C(c1nn(C2CC2)c(=O)c2ccccc12)N1CCN(c2ccccc2)CC1 [Compound 9, 2-cyclopropyl-4-(4-phenylpiperazine-1-carbonyl)phthalazin-1-one] | 1000 to 10000 nM | ≤ 1000 nM
CCOc1cc(F)ccc1N1CCN(C(=O)c2nn(C)c(=O)c3ccccc23)CC1 [Compound 58] | 1000 to 10000 nM | ≤ 1000 nM
COc1ccc(F)c(N2CCN(C(=O)c3nn(C)c(=O)c4ccccc34)CC2)c1 [Compound 44] | ≤ 1000 nM | ≤ 1000 nM
CCn1nc(C(=O)N2CCN(c3ccccc3OC(C)C)CC2)c2ccccc2c1=O [Compound 128] | 1000 to 10000 nM | ≤ 1000 nM
CCn1nc(C(=O)N2CCN(c3ccc(C(F)(F)F)cc3C)CC2)c2ccccc2c1=O [Compound 104] | 1000 to 10000 nM | 1000 to 10000 nM
CCn1nc(C(=O)N2CCN(c3ccc(F)c4c3OCC4)CC2)c2ccccc2c1=O [Compound 186, 2-ethyl-4-(4-(4-fluoro-2,3-dihydrobenzofuran-7-yl)piperazine-1-carbonyl)phthalazin-1(2H)-one] | ≤ 1000 nM | ≤ 1000 nM
COc1cncnc1N1CCN(C(=O)c2nn(C)c(=O)c3ccccc23)CC1 [Compound 22] | > 20000 nM | > 20000 nM
CCn1nc(C(=O)N2CCN(c3cc(C#N)ccc3C3CC3)CC2)c2cnccc2c1=O [Compound 242] | ≤ 1000 nM | ≤ 1000 nM
CCn1nc(C(=O)N2CCN(c3ncc(C#N)cc3OC)CC2)c2ccccc2c1=O [Compound 93] | 1000 to 10000 nM | 1000 to 10000 nM

SMILES | IC50 [1] | IC50 [2]
COc1cc(Cl)ccc1N1CCN(C(=O)c2nn(C)c(=O)c3ccccc23)CC1 [Compound 57] | 1000 to 10000 nM | ≤ 1000 nM
CCn1nc(C(=O)N2CCN(c3ncc(F)cc3OC)CC2)c2ccccc2c1=O [Compound 114] | 1000 to 10000 nM | ≤ 1000 nM
Cc1cncc(N2CCN(C(=O)c3nn(C)c(=O)c4ccc(Cl)cc34)CC2)c1 [Compound 245, 6-chloro-2-methyl-4-(4-(5-methylpyridin-3-yl)piperazine-1-carbonyl)phthalazin-1(2H)-one] | > 20000 nM | 10000 to 20000 nM
Cn1nc(C(=O)N2CCN(c3cccc(C#N)c3)CC2)c2cc(F)ccc2c1=O [Compound 157, 3-(4-(7-fluoro-3-methyl-4-oxo-3,4-dihydrophthalazine-1-carbonyl)piperazin-1-yl)benzonitrile] | ≤ 1000 nM | ≤ 1000 nM
CCn1nc(C(=O)N2CCN(c3cccc(C#N)c3OC)CC2)c2ccccc2c1=O [Compound 151, 3-(4-(3-ethyl-4-oxo-3,4-dihydrophthalazine-1-carbonyl)piperazin-1-yl)-2-methoxybenzonitrile] | 10000 to 20000 nM | 1000 to 10000 nM
CCn1nc(C(=O)N2CCN(c3cc(OC)ncc3F)CC2)c2ccccc2c1=O [Compound 152] | > 20000 nM | > 20000 nM
CCn1nc(C(=O)N2CCN(c3ccc(F)cc3C3CC3)CC2)c2ccccc2c1=O [Compound 119] | ≤ 1000 nM | ≤ 1000 nM
COc1cccc(N2CCN(C(=O)c3nn(C)c(=O)c4ncccc34)CC2)c1 [Compound 182, 5-(4-(3-methoxyphenyl)piperazine-1-carbonyl)-7-methylpyrido[2,3-d]pyridazin-8(7H)-one] | > 20000 nM | > 20000 nM
COc1cc(N2CCN(C(=O)c3nn(C)c(=O)c4ccccc34)CC2)cnn1 [Compound 12] | 10000 to 20000 nM | 10000 to 20000 nM
Cc1ccc(C#N)cc1N1CCN(C(=O)c2nn(C)c(=O)c3ccccc23)CC1 [Compound 67] | ≤ 1000 nM | ≤ 1000 nM
Cn1nc(C(=O)N2CCN(c3cccnc3)CC2)c2ccccc2c1=O [Compound 32] | > 20000 nM | > 20000 nM
Cn1ccc(N2CCN(C(=O)c3nn(C)c(=O)c4ccccc34)CC2)n1 [Compound 11] | > 20000 nM | > 20000 nM
Cn1nc(C(=O)N2CCN(c3nnccc3C3CC3)CC2)c2ccccc2c1=O [Compound 185, 4-[4-(4-cyclopropylpyridazin-3-yl)piperazine-1-carbonyl]-2-methyl-phthalazin-1-one] | 1000 to 10000 nM | 1000 to 10000 nM
CCn1nc(C(=O)N2CCN(c3ccccc3OCCOC)CC2)c2ccccc2c1=O [Compound 129] | > 20000 nM | > 20000 nM
CCn1nc(C(=O)N2CCN(c3ncc(C#N)cc3F)CC2)c2ccccc2c1=O [Compound 86] | > 20000 nM | > 20000 nM
Cn1nc(C(=O)N2CCN(c3ccc(F)c(F)c3)CC2)c2ccccc2c1=O [Compound 43] | 1000 to 10000 nM | 1000 to 10000 nM
COc1cccc(N2CCN(C(=O)c3nn(C)c(=O)c4ccncc34)CC2)c1 [Compound 173, 4-(4-(3-methoxyphenyl)piperazine-1-carbonyl)-2-methylpyrido[3,4-d]pyridazin-1(2H)-one] | 1000 to 10000 nM | ≤ 1000 nM
CCc1ccncc1N1CCN(C(=O)c2nn(C)c(=O)c3ccccc23)CC1 [Compound 66] | 1000 to 10000 nM | ≤ 1000 nM
